Measurements taken from patent US20250009861A1, “ANTI-CANCER VACCINE COMPOSITION COMPRISING PEPTIDES DERIVED FROM TUMOR-ASSOCIATED ANTIGEN, AND ADJUVANT CONSISTING OF LIPOPEPTIDE AND IMMUNOACTIVE SUBSTANCE, AND USE THEREOF” (CHA VACCINE RESEARCH INSTITUTE CO., LTD, priority 2021, published 2025).

System: peripheral blood mononuclear cells (PBMCs)
Assay: IFN-γ ELISPOT immunogenicity assay in PBMCs
Assay type: cell-based, human
Details: single peptides, PBMCs of healthy people, compared to control untreated with peptides; FIG. 1
Protocol: To confirm the immunogenicity of the 13 peptides selected in Example 1, interferon gamma (IFNg)-enzyme linked immuno-SPOT assay (ELISPOT) was performed.
This experiment is a sensitive immunoassay that can detect cytokines secreted by a single cell. By attaching the cytokines secreted when cells are activated to a capture antibody, the secreted cytokines can be measured without being affected by proteins expressed on the cell surface or proteolytic enzymes. After attaching the cytokine to the capture antibody, the cells are removed, a detecting antibody conjugated to an enzyme that can recognize the attached capture antibody is added, and a chromogenic substrate for the enzyme is added, forming a chromogenic spot at the location of the cell secreting the cytokine, and the number of spots can be used to determine the number of cells that have responded to the stimulating antigen.
The peripheral blood mononuclear cells (PBMCs) required for the experiment were isolated from human venous blood as follows. The venous blood was diluted with 1×PBS, placed in SepMate-50 tubes, and centrifuged at 800 g for 20 minutes at room temperature. After centrifugation, the plasma and the separated PBMCs were washed, placed in each well of a 6 well tissue culture plate at a concentration of 1×10^6 cells/mL, and cultured overnight in an incubator (37° C., 5% CO2). The next day, the PBMC culture solution was recovered and centrifuged at 2000 rpm for 15 minutes at room temperature. After centrifugation, PBMCs were seeded in a 6 well cell culture plate, and peptides were added thereto and cultured to stimulate the cells.
At this time, the 13 peptides selected in Example 1 were treated alone or with various peptide combinations, and an untreated group and a ConA group were also prepared for comparative analysis. […] After attaching ELI-FOIL to the dried ELISPOT plate and stamping the membrane, the number of spots in each well was read using an ELISPOT reader. […]

For “LMLGEFLKL [CHA-6, Survivin (97-104) derived peptide, HLA class I, A02; excluded]”, the “immunogenicity (IFN-γ ELISPOT spots)” value was “lowest immunogenicity”.
In the case of FLWGPRALV [CHA-11], the “immunogenicity (IFN-γ ELISPOT spots)” value was “lowest immunogenicity”.
For “TQHFVQENYLEY [CHA-10, Mage-A3 (246-260) derived peptide, HLA class II, DRB1; excluded]”, the “immunogenicity (IFN-γ ELISPOT spots)” value was “lowest immunogenicity”.
